Reference: patent US8710043B2, “TRPM8 antagonists and their use in treatments” (Amgen Inc., priority 2011, dated 2014)

What was measured:
human TRPM8 = target: T1, human TRPM8 (Homo sapiens, UniProt Q7Z2W7); assay: Luminescence readout assay for measuring intracellular calcium, icilin activation; type: cell-based; conditions: CHO cells expressing human TRPM8, aequorin luminescence, 1 μM icilin activation; read-out: hTRPM8 IC50
T1 construct: expressed in transfected cells; host or cells: Chinese hamster ovary (CHO) cells, T-REx tetracycline-inducible system, co-transfected with aequorin
Outline: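 The read-out was luminescence reporting intracellular calcium, recorded by a CCD-based luminometer. Compounds were preincubated for 2.5 min before agonist challenge with 1 μM icilin. Human TRPM8 was expressed in a stable T-REx CHO line, induced with 0.5 μg/mL tetracycline the day before.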

[1] = tested on: icilin induced wet-dog shakes; assay: Inhibition of icilin induced shaking (wet-dog shakes) in rats; type: in vivo; conditions: Rattus norvegicus, po; dose 1 mg/kg p.o., 2 h before icilin; male Sprague Dawley rats; shakes counted for 30 min post-icilin
Experimental: Inhibition of Icilin Induced Shaking in Rats
Example compounds at doses ranging from 0.01 to 3 mg/kg (p.o, suspended in 5% Tween80/Oralplus or suspended in 2% HPMC-1% Tween-80 pH2.2 with MSA, 5 mL/kg) were administered to male Sprague Dawley rats (200-300 g, Harlan, n=6-8/treatment) 2 h before icilin to assess the ability to block the spontaneous wet-dog shake phenomena induced by icilin (i.p., suspended in 100% PEG400 at 0.5 mg/kg, 1 mL/kg or p.o., suspended in 2% HPMC-1% Tween-80 at 3 mg/kg, 2.5 mL/kg). Spontaneous wet-dog shakes were counted manually by two blinded observers or using LABORAS automation (Metris) for 30 min post-icilin.

T1 sequence (Q7Z2W7 whole entry): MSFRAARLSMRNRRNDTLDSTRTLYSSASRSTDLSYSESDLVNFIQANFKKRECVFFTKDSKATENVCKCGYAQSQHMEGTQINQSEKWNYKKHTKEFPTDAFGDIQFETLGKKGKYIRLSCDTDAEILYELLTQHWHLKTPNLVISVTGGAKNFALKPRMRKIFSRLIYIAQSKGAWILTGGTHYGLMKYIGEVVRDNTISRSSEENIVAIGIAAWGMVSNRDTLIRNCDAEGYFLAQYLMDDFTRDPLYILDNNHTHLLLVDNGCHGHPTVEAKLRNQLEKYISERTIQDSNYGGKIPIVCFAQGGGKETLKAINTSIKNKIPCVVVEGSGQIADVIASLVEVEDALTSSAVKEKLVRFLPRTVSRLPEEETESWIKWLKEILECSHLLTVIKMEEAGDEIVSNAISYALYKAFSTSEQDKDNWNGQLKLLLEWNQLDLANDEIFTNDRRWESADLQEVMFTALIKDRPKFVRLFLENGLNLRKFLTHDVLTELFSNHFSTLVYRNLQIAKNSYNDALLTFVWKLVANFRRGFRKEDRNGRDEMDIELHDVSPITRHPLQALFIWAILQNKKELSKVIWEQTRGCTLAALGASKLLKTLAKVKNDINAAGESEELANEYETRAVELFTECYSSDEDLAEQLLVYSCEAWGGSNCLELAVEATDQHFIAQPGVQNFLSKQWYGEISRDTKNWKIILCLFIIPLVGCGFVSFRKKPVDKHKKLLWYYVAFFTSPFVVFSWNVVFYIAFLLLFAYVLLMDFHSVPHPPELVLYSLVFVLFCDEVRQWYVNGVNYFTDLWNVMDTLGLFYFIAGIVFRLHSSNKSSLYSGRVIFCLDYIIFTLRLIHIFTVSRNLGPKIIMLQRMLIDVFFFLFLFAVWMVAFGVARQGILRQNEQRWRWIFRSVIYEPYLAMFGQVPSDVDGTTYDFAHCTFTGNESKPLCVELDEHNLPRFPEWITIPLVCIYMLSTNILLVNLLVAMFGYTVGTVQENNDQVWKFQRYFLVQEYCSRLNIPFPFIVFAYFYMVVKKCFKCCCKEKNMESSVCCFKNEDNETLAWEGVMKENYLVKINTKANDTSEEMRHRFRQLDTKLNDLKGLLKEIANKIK

IC50 (human TRPM8) [nM]	Structure (SMILES)	inhibition in vivo at 1 mg/kg [1] [%]
20.7	O=C(N[C@@H](c1ccc(OC(F)(F)F)cc1)c1ccccn1)c1ccc(=O)[nH]c1 [Example 377, (S)-6-oxo-N-(pyridin-2-yl(4-(trifluoromethoxy)phenyl)methyl)-1,6-dihydropyridine-3-carboxamide]	94
20.6	Cc1cc(C(=O)N[C@@H](c2ccc(C(F)(F)F)cc2)c2ncccc2F)c[nH]c1=O [Example 373, (S)-N-((3-fluoropyridin-2-yl)(4-(trifluoromethyl)phenyl)methyl)-5-methyl-6-oxo-1,6-dihydropyridine-3-carboxamide]	64
9.8	O=C(N[C@@H](c1ccc(OC(F)(F)F)cc1)c1ncccc1F)c1ccc(=O)[nH]c1 [Example 1, (S)-N-((3-fluoropyridin-2-yl)(4-(trifluoromethoxy)phenyl)methyl)-6-oxo-1,6-dihydropyridine-3-carboxamide]	100
13.7	O=C(N[C@@H](c1ccc(OC(F)(F)F)c(F)c1)c1ccccn1)c1ccc(=O)[nH]c1 [Example 293, (S)-N-((3-fluoro-4-(trifluoromethoxy)phenyl)(pyridin-2-yl)methyl)-6-oxo-1,6-dihydropyridine-3-carboxamide]	96
10.5	O=C(N[C@@H](c1ccc(OC(F)(F)F)cc1F)c1ncccc1F)c1ccc(=O)[nH]c1 [Example 386, (S)-N-((2-fluoro-4-(trifluoromethoxy)phenyl)(3-fluoropyridin-2-yl)methyl)-6-oxo-1,6-dihydropyridine-3-carboxamide 2,2,2-trifluoroacetate]	97
33.7	O=C(N[C@@H](c1ccc(C(F)(F)F)cc1)c1ncccc1F)c1ccc(=O)n(CCO)c1 [Example 370, (S)-N-((3-fluoropyridin-2-yl)(4-(trifluoromethyl)phenyl)methyl)-1-(2-hydroxyethyl)-6-oxo-1,6-dihydropyridine-3-carboxamide]	50
9.7	O=C(N[C@@H](c1ccc(OC(F)(F)F)c(F)c1)c1ncccc1F)c1ccc2[nH]c(=O)oc2n1 [Example 426, (S)—N-((3-fluoro-4-(trifluoromethoxy)phenyl)(3-fluoropyridin-2-yl)methyl)-2-oxo-1,2-dihydrooxazolo[5,4-b]pyridine-5-carboxamide]	53
4.2	O=C(N[C@@H](c1ccc(OC(F)(F)F)cc1)c1ccccn1)c1ccc2oc(=O)[nH]c2c1 [Example 362, (S)-2-oxo-N-(pyridin-2-yl(4-(trifluoromethoxy)phenyl)methyl)-2,3-dihydrobenzo[d]oxazole-5-carboxamide]	98
15.4	Cc1cccnc1[C@@H](NC(=O)c1ccc(=O)n(C)c1)c1ccc(OC(F)(F)F)c(F)c1 [Example 348, (S)-N-((3-fluoro-4-(trifluoromethoxy)phenyl)(3-methylpyridin-2-yl)methyl)-1-methyl-6-oxo-1,6-dihydropyridine-3-carboxamide]	51
13.7	O=C1Cc2cc(C(=O)N[C@@H](c3ccc(OC(F)(F)F)cc3)c3ncccc3F)ccc2N1 [Example 91, (S)-N-((3-fluoropyridin-2-yl)(4-(trifluoromethoxy)phenyl)methyl)-2-oxoindoline-5-carboxamide]	100
14.2	Cn1cc(C(=O)N[C@@H](c2ccc(C(F)(F)F)cc2)c2ncccc2F)ccc1=O [Example 68, (S)-N-((3-fluoropyridin-2-yl)(4-(trifluoromethyl)phenyl)methyl)-1-methyl-6-oxo-1,6-dihydropyridine-3-carboxamide]	100
7.8	Cn1cc(C(=O)N[C@@H](c2ccc(OC(F)(F)F)c(F)c2)c2ncccc2F)ccc1=O [Example 103, (S)-N-((3-fluoro-4-(trifluoromethoxy)phenyl)(3-fluoropyridin-2-yl)methyl)-1-methyl-6-oxo-1,6-dihydropyridine-3-carboxamide]	97
17.5	C[C@@H](O)Cn1cc(C(=O)N[C@@H](c2ccc(OC(F)(F)F)c(F)c2)c2ncccc2F)ccc1=O [Example 299, N-((S)-(3-fluoro-4-(trifluoromethoxy)phenyl)(3-fluoropyridin-2-yl)methyl)-1-((R)-2-hydroxypropyl)-6-oxo-1,6-dihydropyridine-3-carboxamide]	56
4.5	O=C(N[C@@H](c1ccc(C(F)(F)F)cc1)c1ncccc1F)c1ccc2oc(=O)[nH]c2c1 [Example 76, (S)-N-((3-fluoropyridin-2-yl)(4-(tnfluoromethyl)phenyl)methyl)-2-oxo-2,3-dihydrobenzo[d]oxazole-5-carboxamide]	100
18	O=C(N[C@@H](c1ccc(OC(F)(F)F)c(F)c1)c1ccccc1F)c1ccc(=O)[nH]c1 [Example 295, (S)-N-((3-fluoro-4-(trifluoromethoxy)phenyl)(2-fluorophenyl)methyl)-6-oxo-1,6-dihydropyridine-3-carboxamide]	77
5.1	O=C(N[C@@H](c1ccc(OC(F)(F)F)cc1)c1ncccc1F)c1ccc2oc(=O)[nH]c2c1 [Example 79, (S)-N-((3-fluoropyridin-2-yl)(4-(trifluoromethoxy)phenyl)methyl)-2-oxo-2,3-dihydrobenzo[d]oxazole-5-carboxamide]	99
16.8	O=C(N[C@@H](c1ccc(OC(F)(F)F)c(F)c1)c1ncccc1F)c1ccc(=O)n(CCO)c1 [Example 297, (S)-N-((3-fluoro-4-(trifluoromethoxy)phenyl)(3-fluoropyridin-2-yl)methyl)-1-(2-hydroxyethyl)-6-oxo-1,6-dihydropyridine-3-carboxamide]	78
